The numbers were not newly measured in patent US20050187172A1, “Combination of a Cox-2 inhibitor and a DNA topoisomerase I inhibitor for treatment of neoplasia” (priority 2003, published 2005), which cites them from elsewhere.

Where a name gives a salt, the structure may show the parent alone. Read-outs that look alike come from different tables or passages of the source.

For data set [1] the following is noted: for Toxicity (reported toxic effects): Table 3, Toxicity column.
The conditions of data set [2]: mice, single IV infusion.
Assay in data set [3]: not given
This is another data set of the same source.

Where [4] appears, read: Grade 2 or higher toxic effects.
Setting [5] is: dose limiting hematological toxicity.

Consider `CC[C@@]1(O)C(=O)OCc2c1cc1n(c2=O)Cc2cc3c(N)cccc3nc2-1` [9-aminocamptothecin, 1H-Pyrano[3′,4′:6,7]indolizino[1,2-b]quinoline-3,14(4H,12H)-dione, 10-amino-4-ethyl-4-hydroxy-, (S)-], for which, in data set [1] (in vivo), the “Dose limiting toxicity (DLT)” value was “neutropenia” and the Maximum tolerated dose is recorded as 45 mug/square mug/square metre/hr.

With `CC[C@@]1(O)C(=O)OCc2c1cc1n(c2=O)Cc2c-1nc1cc3c(cc1c2CN1CCN(C)CC1)OCCO3` [GG211], in data set [1] (in vivo), the “Dose limiting toxicity (DLT)” value was “Hematologic toxicity”.

Regarding `CCc1c2c(nc3ccc(OC(=O)N4CCC(N5CCCCC5)CC4)cc13)-c1cc3c(c(=O)n1C2)COC(=O)[C@]3(O)CC` [Irinotecan hydrochloride, (4S)-4,11-diethyl-4-hydroxy-9-((4-piperidinopiperidino)carbonyloxy)-1H-pyrano(3′,4′:6,7)indolizino(1,2-b)quinoline-3,14(4H,12H)dione hydrochloride.], the Lethality in mice result is on record as “Lethality in mice: 111 mg/kg”.

`CCc1c2c(nc3ccc(OC(=O)N4CCC(N5CCCCC5)CC4)cc13)-c1cc3c(c(=O)n1C2)COC(=O)[C@]3(O)CC` [Irinotecan]: the “Toxicity (reported toxic effects)” value in data set [1] was “Diarrhea and myelosup-”.

For the compound `O=C1c2c(c3c4ccc(O)cc4n([C@@H]4O[C@H](CO)[C@@H](O)[C@H](O)[C@H]4O)c3c3[nH]c4cc(O)ccc4c23)C(=O)N1NC(CO)CO` [J 107088, 5H-Indolo[2,3-a]pyrrolo[3,4-c]carbazole-5,7(6H)-dione, 12-β-D-glucopyranosyl-12,13-dihydro-2,10-dihydroxy-6-[[2-hydroxy-1-(hydroxymethyl)ethyl]amino]-], the Maximum tolerated dose entry in data set [1] (in vivo) is given as “dose: 7.5 mg/m2”.

For the compound `CC[C@@]1(O)C(=O)OCc2c1cc1n(c2=O)Cc2cc3c(CN(C)C)c(O)ccc3nc2-1` [Topotecan hydrochloride, (S)-10-((dimethylamino)methyl)-4-ethyl-4,9-dihydroxy-1H-pyrano (3′,4′:6,7)indolizino(1,2-B)quinoline-3,14-(4H,12H)-dione monohydrochloride], the LD10 entry in data set [2] is reported as “pression. LD10: mice 75 mg/m^2”. Further, the “Dose limiting toxicity (DLT)” value in data set [1] (in vivo) was “DLT: Bone marrow sup-”.

For the compound `CC[C@@]1(O)C(=O)OCc2c1cc1n(c2=O)Cc2cc3c(CN(C)C)c(O)ccc3nc2-1` [Topotecan, 1H-Pyrano[3′,4′:6,7]indolizino[1,2-b]quinoline-3,14(4,H,12H)-dione, 10-[(dimethylamino)methyl]-4-ethyl-4,9-dihydroxy-, (S)-], the “Dose limiting toxicity (DLT)” value in data set [1] (in vivo) is given as “Myelosup-pression dose-”. Further, the Maximally tolerated dose result in data set [1] (× 5 d every 3 to 4 wk) is on record as “dose: 1.5 mg/m^2 × 5 d”.

Take `CN(C)CCNC(=O)c1cccc2cc3ccccc3nc12.Cl.Cl` [XR-5000, 4-Acridinecarboxamide, N-[2-(dimethylamino)ethyl]-, dihydrochloride]: the “Toxicity (reported toxic effects)” value in data set [1] is reported as “infusion-related arm pain”.

As for `CC[C@@]1(O)C(=O)OCc2c1cc1n(c2=O)Cc2cc3c([N+](=O)[O-])cccc3nc2-1` [rubitecan, 1H-Pyrano[3′,4′:6,7]indolizino[1,2-b]quinoline-3,14(4H,12H)-dione, -4-ethyl-4-hydroxy-10-nitro-, (S)-], in data set [3] (setting [4]), the chemical cystitis result is “cystitis (25%),”; the diarrhea result was “diarrhea (32%), chemical”; the neutropenic sepsis entry was “(21%), and weight loss”; the weight loss result was “(18%)”. Also, in data set [3] (setting [5]), the “grade 4 anemia, share of patients” value was “grade 4 anemia in 29%” and the “thrombocytopenia (grade 4), share of patients” value is reported as 18%. Grade 2 or higher. The Maximum tolerated dose result in data set [1] (over five consecutive days repeated every week) is recorded as “dose: 1.5 mg/m2/day”.
